Consider 33 compounds from patent US9242970B2 (ACTELION PHARMACEUTICALS LTD., priority 2010, dated 2016).

Experiment [1] concerns the target human orexin-1 receptor (Homo sapiens (Human), UniProt O43613). The experiment is described as follows: In vitro assay: intracellular calcium measurements (FLIPR), antagonistic activity. Type of experiment: cell-based. To be noted: CHO cells, 3 nM orexin-A, compound incubation 120 min; marked values are geometric means of n = 2-6; read-out: IC50 OX1. (Calcium flux is commonly read through the fluorescence of an indicator in the cells.)

The target in experiment [2] is human orexin-2 receptor (Homo sapiens (Human), UniProt O43614). Described as above. Type of experiment: cell-based. To be noted: CHO cells, 3 nM orexin-A, compound incubation 120 min; marked values are geometric means of n = 2-6; read-out: IC50 OX2.
human orexin-2 receptor, sequence (O43614 whole entry): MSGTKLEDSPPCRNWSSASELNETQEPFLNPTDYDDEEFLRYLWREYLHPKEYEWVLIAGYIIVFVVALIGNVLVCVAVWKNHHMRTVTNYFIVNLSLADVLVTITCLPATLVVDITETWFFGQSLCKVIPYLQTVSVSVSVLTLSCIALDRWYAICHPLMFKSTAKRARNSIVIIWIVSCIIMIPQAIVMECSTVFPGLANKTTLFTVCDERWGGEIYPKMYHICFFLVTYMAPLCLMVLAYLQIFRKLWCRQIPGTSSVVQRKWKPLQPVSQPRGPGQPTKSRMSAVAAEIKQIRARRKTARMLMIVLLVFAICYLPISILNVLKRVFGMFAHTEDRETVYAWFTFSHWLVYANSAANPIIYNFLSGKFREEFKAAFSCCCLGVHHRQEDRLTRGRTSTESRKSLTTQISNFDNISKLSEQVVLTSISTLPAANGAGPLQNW

human orexin-1 receptor, sequence (O43613 whole entry): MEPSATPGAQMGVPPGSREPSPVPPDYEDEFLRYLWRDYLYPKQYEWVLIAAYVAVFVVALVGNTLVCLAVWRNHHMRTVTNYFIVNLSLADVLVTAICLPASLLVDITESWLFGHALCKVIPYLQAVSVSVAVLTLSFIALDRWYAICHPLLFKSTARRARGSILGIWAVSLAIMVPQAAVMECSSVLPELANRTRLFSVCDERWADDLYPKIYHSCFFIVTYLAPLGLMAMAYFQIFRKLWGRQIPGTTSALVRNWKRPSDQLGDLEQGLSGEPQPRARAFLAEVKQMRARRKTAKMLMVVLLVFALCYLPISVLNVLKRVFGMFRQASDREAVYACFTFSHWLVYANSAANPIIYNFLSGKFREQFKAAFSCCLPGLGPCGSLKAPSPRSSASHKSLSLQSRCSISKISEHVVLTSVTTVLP

Regarding `COc1cccc(OC)c1C1CC(C)C(=O)N1Cc1cnc2ccccc2c1` (stereo not drawn) [Example 347, 5-(2,6-dimethoxyphenyl)-3-methyl-1-(quinolin-3-ylmethyl)pyrrolidin-2-one], the results for the IC50 in experiment [1] and in experiment [2] were 1400 nM and 777 nM, respectively.

Turning to `COc1cccc(OC)c1C1CC(C)C(=O)N1Cc1ccc2ccccc2n1` (stereo not drawn) [Example 348, 5-(2,6-dimethoxyphenyl)-3-methyl-1-(quinolin-2-ylmethyl)pyrrolidin-2-one], the IC50 in experiment [1] came out at 206 nM; in experiment [2], 474 nM.

As for `COc1ccnc(OC)c1C1CC(C)C(=O)N1Cc1cccc(-c2ncc(C)s2)c1` (stereo not drawn) [Example 349, 5-(2,4-dimethoxypyridin-3-yl)-3-methyl-1-(3-(5-methylthiazol-2-yl)benzyl)pyrrolidin-2-one], the figures for the IC50 in experiment [1] and in experiment [2] were 104 nM and 120 nM, respectively.

For `COc1ccnc(OC)c1C1CC(C)C(=O)N1Cc1csc(-c2ccc(C)cc2)n1` (stereo not drawn) [Example 350, 5-(2,4-dimethoxypyridin-3-yl)-3-methyl-1-((2-(p-tolyl)thiazol-4-yl)methyl)pyrrolidin-2-one], the IC50 in experiment [1] was determined as 665 nM; in experiment [2], 51 nM.

Consider `COc1cccc(OC)c1C1CC(C)C(=O)N1Cc1ccnc(-c2ncc(C)s2)c1` (stereo not drawn) [Example 351, 5-(2,6-dimethoxyphenyl)-3-methyl-1-((2-(5-methylthiazol-2-yl)pyridin-4-yl)methyl)pyrrolidin-2-one], for which the half-maximal inhibitory concentration (IC50) was determined as 16 nM in experiment [1] and 51 nM in experiment [2].

Take `COc1ccnc(OC)c1C1CC(C)C(=O)N1Cc1ccc2oc3ccccc3c2c1` (stereo not drawn) [Example 352, 1-(dibenzo[b,d]furan-2-ylmethyl)-5-(2,4-dimethoxypyridin-3-yl)-3-methylpyrrolidin-2-one]: the IC50 in experiment [1] was 7 nM; in experiment [2], 13 nM.

As to `COc1cccc(OC)c1C1CC(F)(F)C(=O)N1Cc1ccc2oc3ccccc3c2c1` (stereo not drawn) [Example 353, 1-(dibenzo[b,d]furan-2-ylmethyl)-5-(2,6-dimethoxyphenyl)-3,3-difluoropyrrolidin-2-one], the half-inhibitory concentration (IC50) came out at 4 nM in experiment [1] and 19 nM in experiment [2].

For `COc1ccnc(OC)c1C1CC(C)C(=O)N1Cc1cccc(-c2ccccc2)c1` (stereo not drawn) [Example 354, 1-([1,1′-biphenyl]-3-ylmethyl)-5-(2,4-dimethoxypyridin-3-yl)-3-methylpyrrolidin-2-one], the 50% inhibitory concentration (IC50) in experiment [1] came out at 56 nM; in experiment [2], 113 nM.

For the compound `COc1ccnc(OC)c1C1CC(C)C(=O)N1Cc1cccc(-c2nc(Cl)cs2)c1` (stereo not drawn) [Example 355, 1-(3-(4-chlorothiazol-2-yl)benzyl)-5-(2,4-dimethoxypyridin-3-yl)-3-methylpyrrolidin-2-one], the IC50 worked out at 34 nM in experiment [1] and 103 nM in experiment [2].

As for `COc1ccnc(OC)c1C1CC(C)C(=O)N1Cc1cccc(-c2csc(C)n2)c1` (stereo not drawn) [Example 356, 5-(2,4-dimethoxypyridin-3-yl)-3-methyl-1-(3-(2-methylthiazol-4-yl)benzyl)pyrrolidin-2-one], the IC50 in experiment [1] stood at 30 nM; in experiment [2] it was 113 nM.

As to `COc1cccc(F)c1C1CC(C)C(=O)N1Cc1cnc2ccccc2c1` (stereo not drawn) [Example 358, 5-(2-fluoro-6-methoxyphenyl)-3-methyl-1-(quinolin-3-ylmethyl)pyrrolidin-2-one], the IC50 amounted to 959 nM in experiment [1] and 1260 nM in experiment [2].

As to `COc1cccc(F)c1C1CC(C)C(=O)N1Cc1ccc2ccccc2n1` (stereo not drawn) [Example 359, 5-(2-fluoro-6-methoxyphenyl)-3-methyl-1-(quinolin-2-ylmethyl)pyrrolidin-2-one], the IC50 in experiment [1] was 1710 nM; in experiment [2], 334 nM.

As for `COc1cccc(F)c1C1CC(C)C(=O)N1Cc1ccnc(-c2ncc(C)s2)c1` (stereo not drawn) [Example 360, 5-(2-fluoro-6-methoxyphenyl)-3-methyl-1-((2-(5-methylthiazol-2-yl)pyridin-4-yl)methyl)pyrrolidin-2-one], the IC50 was found to be 352 nM in experiment [1] and 12 nM in experiment [2].

As to `COc1cccc(F)c1C1CC(C)C(=O)N1Cc1ccnc(-n2cccn2)c1` (stereo not drawn) [Example 361, 1-((2-(1H-pyrazol-1-yl)pyridin-4-yl)methyl)-5-(2-fluoro-6-methoxyphenyl)-3-methylpyrrolidin-2-one], the IC50 in experiment [1] was 849 nM; in experiment [2], 87 nM.

On to `COc1cccc(F)c1C1CC(C)C(=O)N1Cc1ccc2oc3ccccc3c2c1` (stereo not drawn) [Example 362, 1-(dibenzo[b,d]furan-2-ylmethyl)-5-(2-fluoro-6-methoxyphenyl)-3-methylpyrrolidin-2-one], for which the IC50 in experiment [1] was found to be 85 nM; in experiment [2], 6 nM.

Take `COc1cccc(F)c1C1CC(C)C(=O)N1Cc1csc(-c2ccc(C)cc2)n1` (stereo not drawn) [Example 363, 5-(2-fluoro-6-methoxyphenyl)-3-methyl-1-((2-(p-tolyl)thiazol-4-yl)methyl)pyrrolidin-2-one]: the IC50 stood at 424 nM in experiment [1] and 49 nM in experiment [2].

Regarding `COc1cccc(F)c1C1CC(C)C(=O)N1Cc1cccc(-c2ncc(C)s2)c1` (stereo not drawn) [Example 364, 5-(2-fluoro-6-methoxyphenyl)-3-methyl-1-(3-(5-methylthiazol-2-yl)benzyl)pyrrolidin-2-one], the results for the IC50 in experiment [1] and in experiment [2] were 121 nM and 11 nM, respectively.

As to `COc1cccc(F)c1C1CC(C)C(=O)N1Cc1cccc(-c2nc(Cl)cs2)c1` (stereo not drawn) [Example 365, 1-(3-(4-chlorothiazol-2-yl)benzyl)-5-(2-fluoro-6-methoxyphenyl)-3-methylpyrrolidin-2-one], the results for the IC50 in experiment [1] and in experiment [2] were 114 nM and 9 nM, respectively.

On to `COc1cccc(F)c1C1CC(C)C(=O)N1Cc1ccnc(-c2nc(C)cs2)c1` (stereo not drawn) [Example 366, 5-(2-fluoro-6-methoxyphenyl)-3-methyl-1-((2-(4-methylthiazol-2-yl)pyridin-4-yl)methyl)pyrrolidin-2-one], for which the IC50 came out at 158 nM in experiment [1] and 8 nM in experiment [2].

For `CCOc1cccc(F)c1C1CC(C)C(=O)N1Cc1cccc(OC(F)(F)F)c1` (stereo not drawn) [Example 371, 5-(2-ethoxy-6-fluorophenyl)-3-methyl-1-(3-(trifluoromethoxy)benzyl)pyrrolidin-2-one], the values for the IC50 in experiment [1] and in experiment [2] were 386 nM and 19 nM, respectively.

For the compound `CCOc1cccc(F)c1C1CC(C)C(=O)N1Cc1ccc(OC(F)(F)F)c(F)c1` (stereo not drawn) [Example 372, 5-(2-ethoxy-6-fluorophenyl)-1-(3-fluoro-4-(trifluoromethoxy)benzyl)-3-methylpyrrolidin-2-one], the half-inhibitory concentration (IC50) in experiment [1] stood at 1490 nM; in experiment [2], 115 nM.

As for `CCOc1cccc(F)c1C1CC(C)C(=O)N1Cc1cccc(OC(F)F)c1` (stereo not drawn) [Example 374, 1-(3-(difluoromethoxy)benzyl)-5-(2-ethoxy-6-fluorophenyl)-3-methylpyrrolidin-2-one], the figures for the IC50 in experiment [1] and in experiment [2] were 976 nM and 41 nM, respectively.

Turning to `CCOc1cccc(F)c1C1CC(C)C(=O)N1Cc1ccc(OC(F)F)c(Cl)c1` (stereo not drawn) [Example 375, 1-(3-chloro-4-(difluoromethoxy)benzyl)-5-(2-ethoxy-6-fluorophenyl)-3-methylpyrrolidin-2-one], the IC50 in experiment [1] is 715 nM; in experiment [2] it was 65 nM.

On to `CCOc1cccc(F)c1C1CC(C)C(=O)N1Cc1cnc2ccccc2c1` (stereo not drawn) [Example 378, 5-(2-ethoxy-6-fluorophenyl)-3-methyl-1-(quinolin-3-ylmethyl)pyrrolidin-2-one], for which the IC50 in experiment [1] amounted to 1640 nM; in experiment [2], 690 nM.

Take `CCOc1cccc(F)c1C1CC(C)C(=O)N1Cc1ccc2ccccc2n1` (stereo not drawn) [Example 379, 5-(2-ethoxy-6-fluorophenyl)-3-methyl-1-(quinolin-2-ylmethyl)pyrrolidin-2-one]: the IC50 in experiment [1] worked out at 1000 nM; in experiment [2], 71 nM.

`CCOc1cccc(F)c1C1CC(C)C(=O)N1Cc1ccnc(-c2ncc(C)s2)c1` (stereo not drawn) [Example 380, 5-(2-ethoxy-6-fluorophenyl)-3-methyl-1-((2-(5-methylthiazol-2-yl)pyridin-4-yl)methyl)pyrrolidin-2-one]: the half-inhibitory concentration (IC50) in experiment [1] turned out to be 131 nM; in experiment [2], 2 nM.

For the compound `CCOc1cccc(F)c1C1CC(C)C(=O)N1Cc1ccnc(-n2cccn2)c1` (stereo not drawn) [Example 381, 1-((2-(1H-pyrazol-1-yl)pyridin-4-yl)methyl)-5-(2-ethoxy-6-fluorophenyl)-3-methylpyrrolidin-2-one], the values for the IC50 in experiment [1] and in experiment [2] were 418 nM and 9 nM, respectively.

`CCOc1cccc(F)c1C1CC(C)C(=O)N1Cc1ccc2oc3ccccc3c2c1` (stereo not drawn) [Example 382, 1-(dibenzo[b,d]furan-2-ylmethyl)-5-(2-ethoxy-6-fluorophenyl)-3-methylpyrrolidin-2-one]: the IC50 in experiment [1] worked out at 88 nM; in experiment [2], 2 nM.

Consider `CCOc1cccc(F)c1C1CC(C)C(=O)N1Cc1csc(-c2ccc(C)cc2)n1` (stereo not drawn) [Example 383, 5-(2-ethoxy-6-fluorophenyl)-3-methyl-1-((2-(p-tolyl)thiazol-4-yl)methyl)pyrrolidin-2-one], for which the IC50 in experiment [1] stood at 234 nM; in experiment [2], 9 nM.

As to `CCOc1cccc(F)c1C1CC(C)C(=O)N1Cc1cccc(-c2ncc(C)s2)c1` (stereo not drawn) [Example 384, 5-(2-ethoxy-6-fluorophenyl)-3-methyl-1-(3-(5-methylthiazol-2-yl)benzyl)pyrrolidin-2-one], the IC50 was determined as 111 nM in experiment [1] and 2 nM in experiment [2].

For `CCOc1cccc(F)c1C1CC(C)C(=O)N1Cc1cccc(-c2nc(Cl)cs2)c1` (stereo not drawn) [Example 385, 1-(3-(4-chlorothiazol-2-yl)benzyl)-5-(2-ethoxy-6-fluorophenyl)-3-methylpyrrolidin-2-one], the IC50 was found to be 64 nM in experiment [1] and 2 nM in experiment [2].

As to `CCOc1cccc(F)c1C1CC(C)C(=O)N1Cc1ccnc(-c2nc(C)cs2)c1` (stereo not drawn) [Example 386, 5-(2-ethoxy-6-fluorophenyl)-3-methyl-1-((2-(4-methylthiazol-2-yl)pyridin-4-yl)methyl)pyrrolidin-2-one], the IC50 in experiment [1] is 39 nM; in experiment [2] it was 2 nM.

With `COc1cccc(OC)c1C1CC(C)C(=O)N1Cc1ccc2c(c1)c1ccccc1n2C` (stereo not drawn) [Example 387, 5-(2,6-dimethoxyphenyl)-3-methyl-1-((9-methyl-9H-carbazol-3-yl)methyl)pyrrolidin-2-one], the IC50 in experiment [1] was determined as 100 nM; in experiment [2], 111 nM.

Broadly, the IC50 is the concentration at which inhibition is half-maximal.
